Molecular target: T1, AID^47-NANOG (A-NANOG) (UniProt P93830+Q7XVM8)
T1 construct: (encoding NP_001052659); 47-amino acid segment that corresponds to amino acids 63-109 of A. thaliana IAA17; expressed in transfected cells; host or cells: CCE mESCs (lentiviral pRAIDRS)
Assay: Auxin-dependent depletion of A-NANOG in mESCs (western blot)
Assay type: cell-based, mouse
Protocol: FIGS. 3A-3D illustrate an auxin-degradable NANOG rescue system in mESCs. CCE mESCs were infected with pRAIDRS AID^47-NANOG (A-NANOG) or GFP-AID^47 (“GFP-A”) and selected clones with ESC morphology were analyzed for the effect of auxin (“IAA”) treatment. FIG. 3A is a western blot analysis depicting endogenous NANOG (*) and A-NANOG (**) in parental mESCs, and in the indicated clones. β-Actin serves as a loading control. Experiment was repeated three times and a representative blot is presented. FIG. 3B are images of mESC clones plated at low density, grown in the presence of ethanol (“Con”) or auxin (“IAA”) for 3-4 days and assayed for AP activity. GFP-A mESCs reached the desired confluency a day earlier and therefore the images were taken on different days. FIG. 3C are bright-field images showing representative morphology of A-NANOG mESCs following 3 days of ethanol (“Con”) or auxin (“IAA”) treatment (upper part) and merged bright-field and GFP fluorescence images of ethanol or auxin-treated GFP-A mESCs (lower part). Scale bars, 100 μm. […] All cells were subjected to the same concentration of ethanol for the duration of experiment. Quantitative real-time PCR analysis was performed for selected self-renewal and differentiation markers, and normalized expression levels are represented as a heatmap. […] See also FIGS. 4A-4F and FIG. 15. […]

T1 sequence (Q7XVM8 whole entry, the tested form may be a part): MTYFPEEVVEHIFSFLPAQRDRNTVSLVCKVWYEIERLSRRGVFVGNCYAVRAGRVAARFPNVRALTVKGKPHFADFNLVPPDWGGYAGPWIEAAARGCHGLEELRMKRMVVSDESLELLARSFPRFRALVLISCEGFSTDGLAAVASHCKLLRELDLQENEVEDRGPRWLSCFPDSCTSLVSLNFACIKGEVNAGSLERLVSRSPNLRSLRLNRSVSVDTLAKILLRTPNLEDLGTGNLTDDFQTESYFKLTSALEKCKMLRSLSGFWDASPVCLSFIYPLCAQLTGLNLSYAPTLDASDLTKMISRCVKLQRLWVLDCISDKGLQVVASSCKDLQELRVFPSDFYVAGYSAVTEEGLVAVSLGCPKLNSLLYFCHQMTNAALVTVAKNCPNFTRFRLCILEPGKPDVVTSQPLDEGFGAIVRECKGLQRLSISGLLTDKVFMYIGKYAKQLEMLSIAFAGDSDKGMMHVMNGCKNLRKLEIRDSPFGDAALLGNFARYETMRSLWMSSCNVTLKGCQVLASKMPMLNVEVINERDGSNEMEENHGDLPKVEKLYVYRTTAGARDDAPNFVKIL
T1 sequence (P93830 63-109): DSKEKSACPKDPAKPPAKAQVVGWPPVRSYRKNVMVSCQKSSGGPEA

depletion of A-NANOG (A-NANOG #2 mESCs, 50 μM auxin, 30 minutes, western blot): complete depletion
time for >95% degradation of NANOG (pRAIDRS system, auxin-dependent protein depletion): 20 to 30 min
SMILES: O=C(O)Cc1c[nH]c2ccccc12 [auxin, indole-3-acetic acid]

From patent US11078496B2, “System for F-box hormone receptor regulated protein expression in mammalian cells” (ICAHN SCHOOL OF MEDICINE AT MOUNT SINAI, priority 2016, dated 2021)
